In paper PMC7681013, “Structure and kinetics of indole-3-glycerol phosphate synthase from Pseudomonas aeruginosa: Decarboxylation is not essential for indole formation” (The Journal of Biological Chemistry, 2020):

Biological target: T1, PaIGPS (Pseudomonas aeruginosa, UniProt P20577)
T1 construct: gene trpC
T1 sequence (P20577 1-278): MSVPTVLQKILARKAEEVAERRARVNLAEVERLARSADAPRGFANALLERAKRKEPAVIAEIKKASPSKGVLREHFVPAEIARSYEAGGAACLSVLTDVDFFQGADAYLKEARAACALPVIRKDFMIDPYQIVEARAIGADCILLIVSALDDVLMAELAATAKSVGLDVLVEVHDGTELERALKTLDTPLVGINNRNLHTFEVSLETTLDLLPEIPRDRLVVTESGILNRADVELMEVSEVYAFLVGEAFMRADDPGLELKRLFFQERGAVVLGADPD
Experiment: X-ray crystal structure, […] Å
Assay type: binding
Details: active site, nonreactive substrate analog; seven of eight chains; pH 3.4 crystals

O=C(O)c1ccccc1NC[C@@H](O)[C@H](O)[C@H](O)COP(=O)(O)O [rCdRP]
X-ray crystal structure, 2.1 Å: The substrate analog, rCdRP, is bound in the active site of the seven more ordered chains.
